Experimental data: the supplement of paper PMC10307832

Tests used:
Assay in all cases: relative viability (nuclei count vs DMSO), 5 days (fraction); higher = more cells survive
201T = system: 201T
Procedure, shortened: (§1)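 Values are medians from duplicate plates. Each reflects relative viability, defined as the nuclei count of treated wells over that of vehicle wells. Lung cancer cell lines in 1536-well plates were pin-tool dosed one day after seeding with one drug alone or with a fixed anchor-drug dose plus five library-drug doses (not always all listed) in √10 steps, then fixed, stained and imaged at 4× after 5 days.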

COR-L 105 = system: COR-L 105
Procedure, shortened: as §1

COR-L23 = system: COR-L23
Procedure, shortened: as §1

EMC-BAC-2 = system: EMC-BAC-2
Procedure, shortened: as §1

HCC-15 = system: HCC-15
Procedure, shortened: as §1

HCC-366 = system: HCC-366
Procedure, shortened: as §1

LC-2-ad = system: LC-2-ad
Procedure, shortened: as §1

NCI-H1437 = system: NCI-H1437
Procedure, shortened: as §1

NCI-H1755 = system: NCI-H1755
Procedure, shortened: as §1

NCI-H1792 = system: NCI-H1792
Procedure, shortened: as §1

NCI-H1915 = system: NCI-H1915
Procedure, shortened: as §1

NCI-H2009 = system: NCI-H2009
Procedure, shortened: as §1

NCI-H2023 = system: NCI-H2023
Procedure, shortened: as §1

NCI-H2347 = system: NCI-H2347
Procedure, shortened: as §1

NCI-H23 = system: NCI-H23
Procedure, shortened: as §1

NCI-H358 = system: NCI-H358
Procedure, shortened: as §1

NCI-H650 = system: NCI-H650
Procedure, shortened: as §1

PC-14 = system: PC-14
Procedure, shortened: as §1

SK-MES-1 = system: SK-MES-1
Procedure, shortened: as §1

Cc1csc(=NC2CCCCC2)n1/N=C/c1ccc(O)c(O)c1O [MIM1] + C[C@@H](Oc1cc(-c2cnn(C3CCNCC3)c2)cnc1N)c1c(Cl)ccc(F)c1Cl [Crizotinib] (partner 1 µM)
relative viability (201T; first compound 0.2 µM): 1.01 | relative viability (201T; first compound 0.6325 µM): 1.04 | relative viability (201T; first compound 2 µM): 1.04 | relative viability (201T; first compound 6.325 µM): 0.81 | relative viability (201T; first compound 20 µM): 0.823 | relative viability (COR-L 105; first compound 0.2 µM): 0.893 | relative viability (COR-L 105; first compound 0.6325 µM): 0.811 | relative viability (COR-L 105; first compound 2 µM): 0.612 | relative viability (COR-L 105; first compound 6.325 µM): 0.724 | relative viability (COR-L 105; first compound 20 µM): 0.759 | relative viability (COR-L23; first compound 0.2 µM): 0.571 | relative viability (COR-L23; first compound 0.6325 µM): 0.621 | relative viability (COR-L23; first compound 2 µM): 0.657 | relative viability (COR-L23; first compound 6.325 µM): 0.461 | relative viability (COR-L23; first compound 20 µM): 0.372 | relative viability (EMC-BAC-2; first compound 0.2 µM): 0.708 | relative viability (EMC-BAC-2; first compound 0.6325 µM): 0.774 | relative viability (EMC-BAC-2; first compound 2 µM): 0.784 | relative viability (EMC-BAC-2; first compound 6.325 µM): 0.628 | relative viability (EMC-BAC-2; first compound 20 µM): 0.196 | relative viability (HCC-15; first compound 0.2 µM): 0.801 | relative viability (HCC-15; first compound 0.6325 µM): 0.808 | relative viability (HCC-15; first compound 2 µM): 0.86 | relative viability (HCC-15; first compound 6.325 µM): 0.406 | relative viability (HCC-15; first compound 20 µM): 0.12 | relative viability (HCC-366; first compound 0.2 µM): 0.552 | relative viability (HCC-366; first compound 0.6325 µM): 0.483 | relative viability (HCC-366; first compound 2 µM): 0.326 | relative viability (HCC-366; first compound 6.325 µM): 0.425 | relative viability (HCC-366; first compound 20 µM): 0.0362 | relative viability (LC-2-ad; first compound 0.2 µM): 0.499 | relative viability (LC-2-ad; first compound 0.6325 µM): 0.385 | relative viability (LC-2-ad; first compound 2 µM): 0.34 | relative viability (LC-2-ad; first compound 6.325 µM): 0.277 | relative viability (LC-2-ad; first compound 20 µM): 0.21 | relative viability (NCI-H1437; first compound 0.2 µM): 0.888 | relative viability (NCI-H1437; first compound 0.6325 µM): 0.839 | relative viability (NCI-H1437; first compound 2 µM): 0.864 | relative viability (NCI-H1437; first compound 6.325 µM): 0.559 | relative viability (NCI-H1437; first compound 20 µM): 0.631 | relative viability (NCI-H1755; first compound 0.2 µM): 0.861 | relative viability (NCI-H1755; first compound 0.6325 µM): 0.794 | relative viability (NCI-H1755; first compound 2 µM): 0.803 | relative viability (NCI-H1755; first compound 6.325 µM): 0.68 | relative viability (NCI-H1755; first compound 20 µM): 0.179 | relative viability (NCI-H1792; first compound 0.2 µM): 0.935 | relative viability (NCI-H1792; first compound 0.6325 µM): 0.897 | relative viability (NCI-H1792; first compound 2 µM): 1.02 | relative viability (NCI-H1792; first compound 6.325 µM): 0.481 | relative viability (NCI-H1792; first compound 20 µM): 0.902 | relative viability (NCI-H1915; first compound 0.2 µM): 0.887 | relative viability (NCI-H1915; first compound 0.6325 µM): 0.875 | relative viability (NCI-H1915; first compound 2 µM): 0.792 | relative viability (NCI-H1915; first compound 6.325 µM): 0.648 | relative viability (NCI-H1915; first compound 20 µM): 0.219 | relative viability (NCI-H2009; first compound 0.2 µM): 0.964 | relative viability (NCI-H2009; first compound 0.6325 µM): 1.1 | relative viability (NCI-H2009; first compound 2 µM): 1.1 | relative viability (NCI-H2009; first compound 6.325 µM): 1.02 | relative viability (NCI-H2009; first compound 20 µM): 0.732 | relative viability (NCI-H2023; first compound 0.2 µM): 0.551 | relative viability (NCI-H2023; first compound 0.6325 µM): 0.598 | relative viability (NCI-H2023; first compound 2 µM): 0.573 | relative viability (NCI-H2023; first compound 6.325 µM): 0.406 | relative viability (NCI-H2023; first compound 20 µM): 0.111 | relative viability (NCI-H2347; first compound 0.2 µM): 0.584 | relative viability (NCI-H2347; first compound 0.6325 µM): 0.548 | relative viability (NCI-H2347; first compound 2 µM): 0.677 | relative viability (NCI-H2347; first compound 6.325 µM): 0.577 | relative viability (NCI-H2347; first compound 20 µM): 0.4 | relative viability (NCI-H23; first compound 0.2 µM): 0.554 | relative viability (NCI-H23; first compound 2 µM): 0.334 | relative viability (NCI-H23; first compound 6.325 µM): 0.487 | relative viability (NCI-H23; first compound 20 µM): 0.259 | relative viability (NCI-H358; first compound 0.2 µM): 0.572 | relative viability (NCI-H358; first compound 0.6325 µM): 0.459 | relative viability (NCI-H358; first compound 2 µM): 0.545 | relative viability (NCI-H358; first compound 6.325 µM): 0.225 | relative viability (NCI-H358; first compound 20 µM): 0.295 | relative viability (NCI-H650; first compound 0.2 µM): 0.649 | relative viability (NCI-H650; first compound 0.6325 µM): 0.709 | relative viability (NCI-H650; first compound 2 µM): 0.662 | relative viability (NCI-H650; first compound 6.325 µM): 0.619 | relative viability (NCI-H650; first compound 20 µM): 0.279 | relative viability (PC-14; first compound 0.2 µM): 0.854 | relative viability (PC-14; first compound 0.6325 µM): 0.839 | relative viability (PC-14; first compound 2 µM): 0.873 | relative viability (PC-14; first compound 6.325 µM): 0.728 | relative viability (PC-14; first compound 20 µM): 0.254 | relative viability (SK-MES-1; first compound 0.2 µM): 0.953 | relative viability (SK-MES-1; first compound 0.6325 µM): 0.937 | relative viability (SK-MES-1; first compound 2 µM): 0.959 | relative viability (SK-MES-1; first compound 6.325 µM): 0.799 | relative viability (SK-MES-1; first compound 20 µM): 0.732
